Columns and labels:
Test in all cases: RBC kinase panel
Type in all cases: biochemical
[1] = molecular target: T1, TAK1 (Homo sapiens, UniProt O43318); conditions: ATP 10 μM, Data1, Data2
T1 construct: purchased Reaction Biology Corporation
Experimental: (§1) PK68 was tested at 1 μM in duplicate against a panel of 369 human kinases at Reaction Biology Corporation. Results are viewed in the human kinome phylogenetic tree.
(§2) ^a Compound PK68 was tested at 1 μM in duplicate against 369 kinases using the RBC kinase panel service of Reaction Biology Corporation. All the ATP concentrations used were 10 μM. […] Full protocol details are available at http://www.reactionbiology.com.

[2] = molecular target: T2, DCAMKL1 (Homo sapiens, UniProt O15075); conditions: ATP 10 μM, Data1, Data2
T2 construct: purchased Reaction Biology Corporation
Experimental: as §1, §2

[3] = molecular target: T3, TESK1 (Homo sapiens, UniProt Q15569); conditions: ATP 10 μM, Data1, Data2
T3 construct: purchased Reaction Biology Corporation
Experimental: as §1, §2

[4] = molecular target: T4, FGR (Homo sapiens, UniProt P09769); conditions: ATP 10 μM, Data1, Data2
T4 construct: purchased Reaction Biology Corporation
Experimental: as §1, §2

[5] = molecular target: T5, HIPK4 (Homo sapiens, UniProt Q8NE63); conditions: ATP 10 μM, Data1, Data2
T5 construct: purchased Reaction Biology Corporation
Experimental: as §1, §2

[6] = molecular target: T6, MKK6 (Homo sapiens, UniProt P52564); conditions: ATP 10 μM, Data1, Data2
T6 construct: purchased Reaction Biology Corporation
Experimental: as §1, §2

[7] = molecular target: T7, FLT1/VEGFR1 (Homo sapiens, UniProt P17948); conditions: ATP 10 μM, Data1, Data2
T7 construct: purchased Reaction Biology Corporation
Experimental: as §1, §2

[8] = molecular target: T8, PKCepsilon (Homo sapiens, UniProt Q02156); conditions: ATP 10 μM, Data1, Data2
T8 construct: purchased Reaction Biology Corporation
Experimental: as §1, §2

[9] = molecular target: T9, STK21/CIT (Homo sapiens, UniProt O14578); conditions: ATP 10 μM, Data1, Data2
T9 construct: purchased Reaction Biology Corporation
Experimental: as §1, §2

[10] = molecular target: T10, EPHA4 (Homo sapiens, UniProt P54764); conditions: ATP 10 μM, Data1, Data2
T10 construct: purchased Reaction Biology Corporation
Experimental: as §1, §2

[11] = molecular target: T11, PDGFRb (Homo sapiens, UniProt P09619); conditions: ATP 10 μM, Data1, Data2
T11 construct: purchased Reaction Biology Corporation
Experimental: as §1, §2

[12] = molecular target: T12, NEK9 (Homo sapiens, UniProt Q8TD19); conditions: ATP 10 μM, Data1, Data2
T12 construct: purchased Reaction Biology Corporation
Experimental: as §1, §2

[13] = molecular target: T13, STK38L/NDR2 (Homo sapiens, UniProt Q9Y2H1); conditions: ATP 10 μM, Data1, Data2
T13 construct: purchased Reaction Biology Corporation
Experimental: as §1, §2

[14] = molecular target: T14, HIPK3 (Homo sapiens, UniProt Q9H422); conditions: ATP 10 μM, Data1, Data2
T14 construct: purchased Reaction Biology Corporation
Experimental: as §1, §2

[15] = molecular target: T15, CDK2/cyclin O (Homo sapiens, UniProt P24941); conditions: ATP 10 μM, Data1, Data2
T15 construct: purchased Reaction Biology Corporation
Experimental: as §1, §2

[16] = molecular target: T16, MLK2/MAP3K10 (Homo sapiens, UniProt Q02779); conditions: ATP 10 μM, Data1, Data2
T16 construct: purchased Reaction Biology Corporation
Experimental: as §1, §2

[17] = molecular target: T17, ERK5/MAPK7 (Homo sapiens, UniProt Q13164); conditions: ATP 10 μM, Data1, Data2
T17 construct: purchased Reaction Biology Corporation
Experimental: as §1, §2

[18] = molecular target: T18, PIM1 (Homo sapiens, UniProt P11309); conditions: ATP 10 μM, Data1, Data2
T18 construct: purchased Reaction Biology Corporation
Experimental: as §1, §2

[19] = molecular target: T19, CDK4/cyclin D1 (Homo sapiens, UniProt P11802); conditions: ATP 10 μM, Data1, Data2
T19 construct: purchased Reaction Biology Corporation
Experimental: as §1, §2

[20] = molecular target: T20, TRKB (Homo sapiens, UniProt Q16620)
T20 construct: purchased Reaction Biology Corporation
Experimental: as §1, §2

[21] = molecular target: T21, TLK2 (Homo sapiens, UniProt Q86UE8); conditions: ATP 10 μM, Data1, Data2
T21 construct: purchased Reaction Biology Corporation
Experimental: as §1, §2

[22] = molecular target: T22, MYLK4 (Homo sapiens, UniProt Q86YV6); conditions: ATP 10 μM, Data1, Data2
T22 construct: purchased Reaction Biology Corporation
Experimental: as §1, §2

[23] = molecular target: T23, MAK (Homo sapiens, UniProt P20794); conditions: ATP 10 μM, Data1, Data2
T23 construct: purchased Reaction Biology Corporation
Experimental: as §1, §2

[24] = molecular target: T24, NEK8 (Homo sapiens, UniProt Q86SG6); conditions: ATP 10 μM, Data1, Data2
T24 construct: purchased Reaction Biology Corporation
Experimental: as §1, §2

[25] = molecular target: T25, CK1a1 (Homo sapiens, UniProt P48729); conditions: ATP 10 μM, Data1, Data2
T25 construct: purchased Reaction Biology Corporation
Experimental: as §1, §2

[26] = molecular target: T26, JNK1 (Homo sapiens, UniProt P45983); conditions: ATP 10 μM, Data1, Data2
T26 construct: purchased Reaction Biology Corporation
Experimental: as §1, §2

[27] = molecular target: T27, PLK4/SAK (Homo sapiens, UniProt O00444); conditions: ATP 10 μM, Data1, Data2
T27 construct: purchased Reaction Biology Corporation
Experimental: as §1, §2

[28] = molecular target: T28, MLCK/MYLK (Homo sapiens, UniProt Q15746); conditions: ATP 10 μM, Data1, Data2
T28 construct: purchased Reaction Biology Corporation
Experimental: as §1, §2

[29] = molecular target: T29, EPHA8 (Homo sapiens, UniProt P29322); conditions: ATP 10 μM, Data1, Data2
T29 construct: purchased Reaction Biology Corporation
Experimental: as §1, §2

[30] = molecular target: T30, MAPKAPK5/PRAK (Homo sapiens, UniProt Q8IW41); conditions: ATP 10 μM, Data1, Data2
T30 construct: purchased Reaction Biology Corporation
Experimental: as §1, §2

[31] = molecular target: T31, CDK2/Cyclin A1 (Homo sapiens, UniProt P24941); conditions: ATP 10 μM, Data1, Data2
T31 construct: purchased Reaction Biology Corporation
Experimental: as §1, §2

[32] = molecular target: T32, PLK1 (Homo sapiens, UniProt P53350); conditions: ATP 10 μM, Data1, Data2
T32 construct: purchased Reaction Biology Corporation
Experimental: as §1, §2

[33] = molecular target: T33, ASK1/MAP3K5 (Homo sapiens, UniProt Q99683); conditions: ATP 10 μM, Data1, Data2
T33 construct: purchased Reaction Biology Corporation
Experimental: as §1, §2

T20 sequence (Q16620 32-822): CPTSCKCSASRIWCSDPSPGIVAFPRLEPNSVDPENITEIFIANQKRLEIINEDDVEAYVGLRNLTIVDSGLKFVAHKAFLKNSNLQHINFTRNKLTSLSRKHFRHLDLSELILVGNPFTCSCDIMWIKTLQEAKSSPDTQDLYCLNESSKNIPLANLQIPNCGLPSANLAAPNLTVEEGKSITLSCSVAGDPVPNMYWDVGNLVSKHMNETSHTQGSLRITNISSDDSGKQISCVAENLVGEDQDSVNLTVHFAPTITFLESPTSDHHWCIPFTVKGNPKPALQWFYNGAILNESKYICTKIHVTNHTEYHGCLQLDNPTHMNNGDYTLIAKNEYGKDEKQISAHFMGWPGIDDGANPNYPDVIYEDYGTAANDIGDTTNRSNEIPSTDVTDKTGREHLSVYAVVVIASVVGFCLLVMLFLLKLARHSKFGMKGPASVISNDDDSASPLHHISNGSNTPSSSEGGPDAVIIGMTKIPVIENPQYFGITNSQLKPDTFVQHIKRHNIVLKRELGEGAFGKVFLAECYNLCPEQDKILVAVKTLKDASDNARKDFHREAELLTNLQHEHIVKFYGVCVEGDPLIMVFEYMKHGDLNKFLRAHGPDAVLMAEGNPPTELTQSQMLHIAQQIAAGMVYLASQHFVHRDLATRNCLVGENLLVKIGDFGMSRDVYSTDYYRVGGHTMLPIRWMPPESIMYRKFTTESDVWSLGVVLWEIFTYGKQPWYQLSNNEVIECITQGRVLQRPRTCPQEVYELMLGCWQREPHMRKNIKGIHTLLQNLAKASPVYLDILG
T2 sequence (O15075 whole entry): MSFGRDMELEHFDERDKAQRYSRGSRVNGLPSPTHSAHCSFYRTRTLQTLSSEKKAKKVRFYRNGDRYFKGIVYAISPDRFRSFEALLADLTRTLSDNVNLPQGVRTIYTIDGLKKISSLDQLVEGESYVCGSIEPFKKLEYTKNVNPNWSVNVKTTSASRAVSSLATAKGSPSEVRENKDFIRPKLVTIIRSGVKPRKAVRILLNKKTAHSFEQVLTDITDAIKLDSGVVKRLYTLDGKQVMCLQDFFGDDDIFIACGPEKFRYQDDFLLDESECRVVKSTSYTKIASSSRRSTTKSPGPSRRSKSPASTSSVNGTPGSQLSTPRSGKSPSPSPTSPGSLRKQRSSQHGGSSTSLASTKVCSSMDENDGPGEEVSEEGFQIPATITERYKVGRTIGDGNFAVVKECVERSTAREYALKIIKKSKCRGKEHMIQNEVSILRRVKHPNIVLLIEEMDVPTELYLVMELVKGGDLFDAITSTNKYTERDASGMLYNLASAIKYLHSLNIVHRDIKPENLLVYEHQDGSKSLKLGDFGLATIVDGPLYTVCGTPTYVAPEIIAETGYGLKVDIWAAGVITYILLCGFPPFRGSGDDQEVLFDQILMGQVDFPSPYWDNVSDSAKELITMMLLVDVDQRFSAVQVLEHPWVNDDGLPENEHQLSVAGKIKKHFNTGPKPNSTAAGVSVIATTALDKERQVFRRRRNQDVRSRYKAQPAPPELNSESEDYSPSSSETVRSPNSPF
T8 sequence (Q02156 whole entry): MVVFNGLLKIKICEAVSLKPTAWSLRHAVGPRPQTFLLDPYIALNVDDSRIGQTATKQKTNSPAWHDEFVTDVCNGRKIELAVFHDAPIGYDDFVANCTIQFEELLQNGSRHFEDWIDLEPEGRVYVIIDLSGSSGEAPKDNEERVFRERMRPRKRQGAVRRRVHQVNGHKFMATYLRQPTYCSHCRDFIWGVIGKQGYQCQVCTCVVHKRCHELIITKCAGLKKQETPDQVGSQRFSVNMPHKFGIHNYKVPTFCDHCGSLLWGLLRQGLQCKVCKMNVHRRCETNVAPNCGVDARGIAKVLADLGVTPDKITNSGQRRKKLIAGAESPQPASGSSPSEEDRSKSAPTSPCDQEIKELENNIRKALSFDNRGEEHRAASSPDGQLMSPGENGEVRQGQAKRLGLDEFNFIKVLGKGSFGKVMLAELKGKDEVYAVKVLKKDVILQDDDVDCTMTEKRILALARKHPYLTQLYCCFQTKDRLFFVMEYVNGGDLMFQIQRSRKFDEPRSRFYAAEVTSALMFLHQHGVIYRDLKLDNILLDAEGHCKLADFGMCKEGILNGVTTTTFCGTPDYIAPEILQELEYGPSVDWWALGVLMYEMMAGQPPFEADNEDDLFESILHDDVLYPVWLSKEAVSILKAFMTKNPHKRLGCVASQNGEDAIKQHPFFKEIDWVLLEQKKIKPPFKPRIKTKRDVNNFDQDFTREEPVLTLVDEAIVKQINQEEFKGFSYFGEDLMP
T33 sequence (Q99683 whole entry): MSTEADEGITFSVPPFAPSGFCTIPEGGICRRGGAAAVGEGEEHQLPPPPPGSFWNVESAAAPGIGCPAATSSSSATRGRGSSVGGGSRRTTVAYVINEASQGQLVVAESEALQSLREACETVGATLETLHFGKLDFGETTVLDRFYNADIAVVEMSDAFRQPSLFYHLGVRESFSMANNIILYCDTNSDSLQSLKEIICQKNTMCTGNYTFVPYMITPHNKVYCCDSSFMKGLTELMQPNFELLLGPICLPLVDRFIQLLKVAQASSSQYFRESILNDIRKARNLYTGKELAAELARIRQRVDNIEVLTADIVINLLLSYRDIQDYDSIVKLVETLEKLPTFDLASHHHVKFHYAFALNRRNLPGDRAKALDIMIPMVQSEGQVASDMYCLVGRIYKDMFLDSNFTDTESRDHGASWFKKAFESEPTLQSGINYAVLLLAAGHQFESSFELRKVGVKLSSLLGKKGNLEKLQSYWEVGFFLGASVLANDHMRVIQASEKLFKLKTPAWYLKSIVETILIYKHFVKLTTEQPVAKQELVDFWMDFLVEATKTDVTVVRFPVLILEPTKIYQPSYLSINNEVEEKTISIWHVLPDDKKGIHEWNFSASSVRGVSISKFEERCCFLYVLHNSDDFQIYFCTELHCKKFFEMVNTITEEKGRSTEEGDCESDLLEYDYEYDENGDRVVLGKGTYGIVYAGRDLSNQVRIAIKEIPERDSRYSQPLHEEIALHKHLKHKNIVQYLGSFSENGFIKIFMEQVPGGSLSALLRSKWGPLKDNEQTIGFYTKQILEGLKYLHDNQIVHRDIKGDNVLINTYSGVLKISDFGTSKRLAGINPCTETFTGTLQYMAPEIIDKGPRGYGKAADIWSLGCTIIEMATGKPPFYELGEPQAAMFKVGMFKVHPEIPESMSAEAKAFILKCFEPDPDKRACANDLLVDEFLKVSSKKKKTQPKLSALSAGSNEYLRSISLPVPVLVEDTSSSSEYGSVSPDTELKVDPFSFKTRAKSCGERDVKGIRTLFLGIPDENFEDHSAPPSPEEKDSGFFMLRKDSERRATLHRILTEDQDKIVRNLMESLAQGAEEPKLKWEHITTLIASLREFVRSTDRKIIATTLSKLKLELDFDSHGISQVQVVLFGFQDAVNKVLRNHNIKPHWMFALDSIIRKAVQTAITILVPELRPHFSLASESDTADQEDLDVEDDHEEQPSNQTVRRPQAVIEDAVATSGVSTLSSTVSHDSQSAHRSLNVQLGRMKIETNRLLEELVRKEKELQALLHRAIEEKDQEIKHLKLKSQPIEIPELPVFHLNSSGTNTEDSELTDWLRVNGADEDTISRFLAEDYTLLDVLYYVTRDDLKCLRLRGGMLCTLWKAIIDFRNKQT
T19 sequence (P11802 whole entry): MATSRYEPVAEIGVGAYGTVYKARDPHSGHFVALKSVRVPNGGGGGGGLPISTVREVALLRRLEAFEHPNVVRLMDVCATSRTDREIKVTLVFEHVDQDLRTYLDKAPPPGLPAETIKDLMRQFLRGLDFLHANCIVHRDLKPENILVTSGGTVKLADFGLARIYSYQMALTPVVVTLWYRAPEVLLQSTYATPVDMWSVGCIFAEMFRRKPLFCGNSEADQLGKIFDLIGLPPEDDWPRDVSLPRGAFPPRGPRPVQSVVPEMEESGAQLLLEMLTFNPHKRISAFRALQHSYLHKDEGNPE
T19 sequence (P24385 whole entry partner): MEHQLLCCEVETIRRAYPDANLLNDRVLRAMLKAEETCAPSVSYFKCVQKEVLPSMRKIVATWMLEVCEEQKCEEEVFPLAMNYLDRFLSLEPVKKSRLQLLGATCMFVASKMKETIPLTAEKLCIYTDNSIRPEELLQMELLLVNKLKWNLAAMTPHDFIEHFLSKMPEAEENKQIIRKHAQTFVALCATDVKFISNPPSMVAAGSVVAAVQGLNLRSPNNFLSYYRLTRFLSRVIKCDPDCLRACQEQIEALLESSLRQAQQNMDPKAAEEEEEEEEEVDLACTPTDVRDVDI
T13 sequence (Q9Y2H1 whole entry): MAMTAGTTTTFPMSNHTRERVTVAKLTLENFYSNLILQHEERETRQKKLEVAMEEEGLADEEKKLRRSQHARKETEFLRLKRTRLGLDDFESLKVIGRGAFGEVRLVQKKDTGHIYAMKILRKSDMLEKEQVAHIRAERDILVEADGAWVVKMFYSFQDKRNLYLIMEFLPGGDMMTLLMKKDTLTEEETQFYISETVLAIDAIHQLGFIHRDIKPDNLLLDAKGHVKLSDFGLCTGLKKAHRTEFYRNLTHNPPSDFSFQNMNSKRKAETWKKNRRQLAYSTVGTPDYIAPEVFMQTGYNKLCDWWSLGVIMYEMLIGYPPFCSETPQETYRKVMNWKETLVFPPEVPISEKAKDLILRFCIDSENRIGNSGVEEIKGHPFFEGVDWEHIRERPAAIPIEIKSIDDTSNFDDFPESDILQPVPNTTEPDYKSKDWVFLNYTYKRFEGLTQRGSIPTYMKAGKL
T18 sequence (P11309 whole entry): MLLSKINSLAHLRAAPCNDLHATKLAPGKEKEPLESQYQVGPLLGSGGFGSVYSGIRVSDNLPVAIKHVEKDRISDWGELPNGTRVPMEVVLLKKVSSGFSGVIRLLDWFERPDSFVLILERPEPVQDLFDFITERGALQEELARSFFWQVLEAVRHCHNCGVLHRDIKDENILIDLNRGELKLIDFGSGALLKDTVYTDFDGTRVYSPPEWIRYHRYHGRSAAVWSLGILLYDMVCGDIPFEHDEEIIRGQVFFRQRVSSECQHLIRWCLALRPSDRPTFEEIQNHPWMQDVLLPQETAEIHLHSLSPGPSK

Compound: CC(=O)Nc1nc2ccc(-c3cnc(C)c(NC(=O)OC4CCCCC4)c3)cc2s1 [PK68, cyclohexyl (5-(2-acetamidobenzo[d]thiazol-6-yl)-2-methylpyridin-3-yl)carbamate]
- Activity% ([1]; 1 μM): 96.74%
- activity at 1 µM [1]: 97.5%
- Activity% ([2]; 1 μM): 87.59%
- activity at 1 µM [2]: 87.7%
- Activity% ([3]; 1 μM): 111.93%
- activity at 1 µM [3]: 118%
- Activity% ([4]; 1 μM): 82.32%
- activity at 1 µM [4]: 87.2%
- Activity% ([5]; 1 μM): 72.16%
- activity at 1 µM [5]: 74.6%
- Activity% ([6]; 1 μM): 107.08%
- activity at 1 µM [6]: 109%
- Activity% ([7]; 1 μM): 100.00%
- activity at 1 µM [7]: 100%
- Activity% ([8]; 1 μM): 98.93%
- activity at 1 µM [8]: 99.5%
- Activity% ([9]; 1 μM): 121.90%
- activity at 1 µM [9]: 125%
- Activity% ([10]; 1 μM): 92.78%
- activity at 1 µM [10]: 92.8%
- Activity% ([11]; 1 μM): 75.13%
- activity at 1 µM [11]: 76.7%
- Activity% ([12]; 1 μM): 90.50%
- activity at 1 µM [12]: 90.9%
- Activity% ([13]; 1 μM): 100.42%
- activity at 1 µM [13]: 101%
- Activity% ([14]; 1 μM): 63.99%
- activity at 1 µM [14]: 66.4%
- Activity% ([15]; 1 μM): 98.77%
- activity at 1 µM [15]: 99.8%
- Activity% ([16]; 1 μM): 55.63%
- activity at 1 µM [16]: 57%
- Activity% ([17]; 1 μM): 98.25%
- activity at 1 µM [17]: 99.3%
- Activity% ([18]; 1 μM): 100.16%
- activity at 1 µM [18]: 102%
- Activity% ([19]; 1 μM): 88.58%
- activity at 1 µM [19]: 88.8%
- Activity% ([20]; 1 μM, ATP 10 μM, Data1, Data2): 41.21%
- activity at 1 µM ([20]; 1 μM, ATP 10 μM, Data1, Data2): 41.2%
- inhibition at 1 µM ([20]; at 1000 nM): > 50%
- Activity% ([21]; 1 μM): 96.86%
- activity at 1 µM [21]: 98.1%
- Activity% ([22]; 1 μM): 89.75%
- activity at 1 µM [22]: 92.7%
- Activity% ([23]; 1 μM): 96.81%
- activity at 1 µM [23]: 97%
- Activity% ([24]; 1 μM): 79.27%
- activity at 1 µM [24]: 79.9%
- Activity% ([25]; 1 μM): 94.49%
- activity at 1 µM [25]: 97%
- Activity% ([26]; 1 μM): 97.06%
- activity at 1 µM [26]: 98.7%
- Activity% ([27]; 1 μM): 89.27%
- activity at 1 µM [27]: 91.8%
- Activity% ([28]; 1 μM): 97.43%
- activity at 1 µM [28]: 99.7%
- Activity% ([29]; 1 μM): 99.05%
- activity at 1 µM [29]: 100%
- Activity% ([30]; 1 μM): 97.02%
- activity at 1 µM [30]: 97%
- Activity% ([31]; 1 μM): 96.71%
- activity at 1 µM [31]: 98.5%
- Activity% ([32]; 1 μM): 93.68%
- activity at 1 µM [32]: 94.6%
- Activity% ([33]; 1 μM): 93.46%
- activity at 1 µM [33]: 95.2%
